Like-named read-outs stand apart in the source and are kept apart here.
Key:
SAP [1] = molecular target: T1, SAP (Homo sapiens, UniProt P02743); design: human SAP expressed in human SAP transgenic mice; host or cells: human SAP transgenic mice; circulation in vivo; details: cited from earlier work
SAP [2] = molecular target: T1, SAP; assay: Isothermal calorimetry of CPHPC with SAP; details: read-out: affinity of binding, SAP and CPHPC
Description: This phenomenon contrasts sharply with the behaviour in vivo of the closely related molecule, serum amyloid P component (SAP), the other member of the human pentraxin protein family. SAP shares with CRP the homopentameric structure consisting of 5 identical protomers non-covalently associated in a disc like configuration, with a single calcium-dependent ligand binding site on one face of each subunit. […] The handling of aggregated human SAP in vivo may thus differ markedly from that of aggregated CRP. […] Thus compounds that are both bound by CRP with higher affinity and that cross-link it in more avid stable complexes, may cause accelerated clearance from the plasma in vivo.

mouse SAP = molecular target: T2, mouse SAP (Mus musculus, UniProt P12246); details: CPHPC administered to mice; cited from earlier work
T2 construct: host or cells: mice, endogenous circulating SAP
T2 sequence (P12246 21-224): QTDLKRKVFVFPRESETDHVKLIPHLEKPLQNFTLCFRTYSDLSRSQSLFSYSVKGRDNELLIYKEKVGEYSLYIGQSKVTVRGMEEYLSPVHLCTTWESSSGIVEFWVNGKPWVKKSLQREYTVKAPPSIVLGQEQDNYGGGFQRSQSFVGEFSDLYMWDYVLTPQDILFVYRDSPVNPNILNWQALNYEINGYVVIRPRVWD

CRP [3] = molecular target: T3, CRP (Homo sapiens, UniProt P02741); assay: Gel filtration (molecular sieve) chromatography of CRP molecular assembly; format: binding; details: 10 fold molar excess of drug
T3 sequence (P02741 19-224): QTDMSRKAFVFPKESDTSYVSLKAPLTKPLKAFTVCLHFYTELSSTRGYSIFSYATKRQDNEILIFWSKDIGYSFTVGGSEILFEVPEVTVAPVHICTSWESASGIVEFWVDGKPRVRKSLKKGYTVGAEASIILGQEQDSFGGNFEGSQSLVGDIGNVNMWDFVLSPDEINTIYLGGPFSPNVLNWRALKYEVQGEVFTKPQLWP
Description: The ligand binding sites on each of the 5 protomers in the CRP molecule are all on the same face of the disc-like pentameric assembly of the native protein.

CRP [4] = molecular target: T3, CRP
Description: The Roche MIRA automated immunoassay for CRP (64) depends on recognition by a monoclonal antibody of a calcium-dependent epitope on the CRP molecule.

T1 sequence (P02743 20-223): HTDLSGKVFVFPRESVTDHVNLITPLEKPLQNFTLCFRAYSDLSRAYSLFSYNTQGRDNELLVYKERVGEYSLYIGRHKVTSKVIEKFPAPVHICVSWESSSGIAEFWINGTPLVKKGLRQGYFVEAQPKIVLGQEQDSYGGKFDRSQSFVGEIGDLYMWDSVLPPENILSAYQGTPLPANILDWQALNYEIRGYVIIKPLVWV

O=C(O)[C@H]1CCCN1C(=O)CCCCC(=O)N1CCC[C@@H]1C(=O)O [CPHPC, (R)-1-[6-[(R)-2-Carboxy-pyrrolidin-1-yl]-6-oxo-hexanoyl]pyrrolidine-2-carboxylic acid]
effect on human SAP in vivo (SAP [1]; human SAP transgenic mice): dramatically clears | clearance of SAP-CPHPC complexes from the circulation in vivo (SAP [1]; pairs of SAP molecules cross linked by CPHPC): very rapidly cleared | Kd (SAP [2]): 10 nM | effect on clearance of mouse SAP in vivo (mouse SAP): does not accelerate clearance

C[N+](C)(C)CCOP(=O)([O-])O [phosphocholine]
Molecular assembly of CRP (CRP [3]): Single pentamers

D-Pro-hexanoyl-phosphocholine [DPHPC]
reduction of MIRA CRP concentration (CRP [4]; CRP 100 mg/l, SAP 100 mg/l (~4 μM), DPHPC 400 μM): 58% | reduction of MIRA CRP concentration (CRP [4]; CRP 100 mg/l, SAP 100 mg/l (~4 μM), DPHPC 2 mM): 89% | reduction of MIRA CRP concentration (CRP [4]; CRP 100 mg/l, SAP 100 mg/l (~4 μM), DPHPC 4 mM): 99% | effect on apparent CRP concentration in MIRA assay (CRP [4]; added to isolated pure CRP, no SAP): slightly reduces | reduction of MIRA CRP value (CRP [4]; pure CRP 100 mg/l (~4 μM), DPHPC 400 μM, no SAP): no effect | reduction of MIRA CRP value (CRP [4]; pure CRP 100 mg/l (~4 μM), DPHPC 4 mM, no SAP): 91% | reduction of MIRA CRP value (CRP [4]; second experiment: ~4 μM CRP, 1 mM DPHPC, SAP 400 nM): 61% | reduction of MIRA CRP value (CRP [4]; second experiment: ~4 μM CRP, 1 mM DPHPC, SAP 800 nM): 61% | reduction of MIRA CRP value (CRP [4]; second experiment: ~4 μM CRP, 1 mM DPHPC, SAP 2 μM): 73% | reduction of MIRA CRP value (CRP [4]; second experiment: ~4 μM CRP, 1 mM DPHPC, SAP about 4 μM): 85% | reduction of MIRA CRP concentration (CRP [4]; second experiment: ~4 μM CRP, 1 mM DPHPC, no SAP): 62% | reduction of MIRA CRP value (CRP [4]; whole serum, SAP and CRP both ~4 μM, 4 mM DPHPC): 44% | enhancement by SAP of the effect of DPHPC alone in MIRA (CRP [4]; whole serum, SAP concentrations lower than 2 μM, 4 mM DPHPC): no enhancement | reduction of MIRA CRP value (CRP [4]; whole serum, ~4 μM CRP, 2 μM SAP, 4 mM DPHPC): 29% | reduction of CRP detectable in MIRA assay (CRP [4]; whole serum, ~4 μM CRP, 4 mM DPHPC, no added SAP): 19%
